26 compounds from patent US8785460B2, “Tricyclic compounds and use thereof” (Takeda Pharmaceutical Company Limited, priority 2008, dated 2014) can be followed below.

What is called pIC50 is the negative decadic logarithm of the IC50, by convention in mol/L. Broadly, the melting point is the temperature of the solid-liquid transition.

Structures are written as SMILES. pIC50: −log10 of the molar value.

One data set concerns the target T1, human CRF1 receptor (Homo sapiens, UniProt P34998).
T1 construct: expressed in transfected cells; host or cells: CHO cells (membrane fraction)
T1 sequence (P34998 24-415): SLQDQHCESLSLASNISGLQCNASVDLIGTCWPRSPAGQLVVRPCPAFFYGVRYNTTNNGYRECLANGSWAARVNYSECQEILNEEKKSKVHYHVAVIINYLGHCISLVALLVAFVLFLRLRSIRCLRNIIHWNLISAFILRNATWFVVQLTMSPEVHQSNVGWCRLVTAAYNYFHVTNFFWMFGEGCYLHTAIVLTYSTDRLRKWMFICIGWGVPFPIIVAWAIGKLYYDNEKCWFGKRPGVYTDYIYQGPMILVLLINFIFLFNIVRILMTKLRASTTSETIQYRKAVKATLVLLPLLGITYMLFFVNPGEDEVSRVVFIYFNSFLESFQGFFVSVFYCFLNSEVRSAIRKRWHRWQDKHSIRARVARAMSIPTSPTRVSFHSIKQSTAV
In words: Measurement of CRF Binding Inhibitory Rate (receptor binding experiment with 125I-CRF). As to conditions: human CRF1 receptor expressing CHO cellular membrane fraction, 50 pM 125I-CRF, room temperature 1.5 hr, 0.05 nM to 10 μM of compound; read-out: IC50 values (CRF binding inhibition).

`CCC(OC)c1cccc2nc3n(c12)CCCN3c1ccc(Cl)cc1Cl` (stereo not shown) [Example 93, 1-(2,4-Dichlorophenyl)-6-(1-methoxypropyl)-1,2,3,4-tetrahydropyrimido[1,2-a]benzimidazole] showed a melting point of 151 to 153 °C. Also, the pIC50 on human CRF1 receptor was above 6.00.

`CCN(CC)c1cccc2nc3n(c12)CCCCCN3c1ccc(Cl)cc1Cl` [Example 102, 1-(2,4-Dichlorophenyl)-N,N-diethyl-1,2,3,4,5,6-hexahydro[1,3]diazocino[1,2-a]benzimidazol-8-amine] had a melting point of 120 to 121 °C. Further, the pIC50 at human CRF1 receptor is above 6.00.

The compound `CC(C)(O)c1ccc(Cl)c2nc3n(c12)CCCN3c1ccc(Cl)cc1Cl` [Example 106, 2-[9-Chloro-1-(2,4-dichlorophenyl)-1,2,3,4-tetrahydropyrimido[1,2-a]benzimidazol-6-yl]propan-2-ol] showed a melting point of 216 to 218 °C. Moreover, the negative logarithm of the IC50 (pIC50) on human CRF1 receptor was above 6.00.

Consider `CCC(O)(CC)c1ccc(Cl)c2nc3n(c12)CCCN3c1ccc(Cl)cc1Cl` [Example 107, 3-[9-Chloro-1-(2,4-dichlorophenyl)-1,2,3,4-tetrahydropyrimido[1,2-a]benzimidazol-6-yl]pentan-3-ol], for which the melting point was 199 to 201 °C. For the same compound, the negative-log IC50 (pIC50) on human CRF1 receptor was above 6.00.

Consider `OC(c1ccc(Cl)c2nc3n(c12)CCCN3c1ccc(Cl)cc1Cl)(C1CC1)C1CC1` [Example 108, [9-Chloro-1-(2,4-dichlorophenyl)-1,2,3,4-tetrahydropyrimido[1,2-a]benzimidazol-6-yl](dicyclopropyl)methanol], for which the melting point fell in the range of 184 to 186 °C. Further, at human CRF1 receptor, the pIC50 was above 6.00.

In turn, `COC(C)(C)c1ccc(Cl)c2nc3n(c12)CCCN3c1ccc(Cl)cc1Cl` [Example 109, 9-Chloro-1-(2,4-dichlorophenyl)-6-(1-methoxy-1-methylethyl)-1,2,3,4-tetrahydropyrimido[1,2-a]benzimidazole] registered a melting point of 203 to 204 °C. Also, the negative logarithm of the IC50 (pIC50) on human CRF1 receptor was above 6.00.

Compound `CCC(CC)(OC)c1ccc(Cl)c2nc3n(c12)CCCN3c1ccc(Cl)cc1Cl` [Example 110, 9-Chloro-1-(2,4-dichlorophenyl)-6-(1-ethyl-1-methoxypropyl)-1,2,3,4-tetrahydropyrimido[1,2-a]benzimidazole] returned a melting point of 124 to 125 °C. Besides, on human CRF1 receptor, the pIC50 is above 6.00.

As to `COC(c1ccc(Cl)c2nc3n(c12)CCCN3c1ccc(Cl)cc1Cl)(C1CC1)C1CC1` [Example 111, 9-Chloro-1-(2,4-dichlorophenyl)-6-[dicyclopropyl(methoxy)methyl]-1,2,3,4-tetrahydropyrimido[1,2-a]benzimidazole], the melting point fell in the range of 99 to 100 °C. The pIC50 on human CRF1 receptor was above 6.00.

The compound `OC(c1ccc(Cl)c2nc3n(c12)CCCN3c1ccc(Cl)cc1Cl)C1CC1` (stereo not shown) [Example 113, [9-Chloro-1-(2,4-dichlorophenyl)-1,2,3,4-tetrahydropyrimido[1,2-a]benzimidazol-6-yl](cyclopropyl)methanol] showed a melting point of 223 to 224 °C. In addition, on human CRF1 receptor, the negative-log IC50 (pIC50) was above 6.00.

`CCCC(O)c1ccc(Cl)c2nc3n(c12)CCCN3c1ccc(Cl)cc1Cl` (stereo not shown) [Example 114, 1-[9-Chloro-1-(2,4-dichlorophenyl)-1,2,3,4-tetrahydropyrimido[1,2-a]benzimidazol-6-yl]butan-1-ol] displayed a melting point of 220 to 221 °C. Further, on human CRF1 receptor, the negative logarithm of the IC50 (pIC50) was above 6.00.

In turn, `CCOC(CC)c1ccc(Cl)c2nc3n(c12)CCCN3c1ccc(Cl)cc1Cl` (stereo not shown) [Example 116, 9-Chloro-1-(2,4-dichlorophenyl)-6-(1-ethoxypropyl)-1,2,3,4-tetrahydropyrimido[1,2-a]benzimidazole] displayed a melting point of 108 to 110 °C. Moreover, at human CRF1 receptor, the pIC50 was above 6.00.

Turning to `COC(c1ccc(Cl)c2nc3n(c12)CCCN3c1ccc(Cl)cc1Cl)C1CC1` (stereo not shown) [Example 117, 9-Chloro-6-[cyclopropyl(methoxy)methyl]-1-(2,4-dichlorophenyl)-1,2,3,4-tetrahydropyrimido[1,2-a]benzimidazole], the melting point was in the range of 138 to 139 °C. Further, the negative-log IC50 (pIC50) on human CRF1 receptor was above 6.00.

The compound `CCCC(OC)c1ccc(Cl)c2nc3n(c12)CCCN3c1ccc(Cl)cc1Cl` (stereo not shown) [Example 118, 9-Chloro-1-(2,4-dichlorophenyl)-6-(1-methoxybutyl)-1,2,3,4-tetrahydropyrimido[1,2-a]benzimidazole] showed a melting point of 139 to 140 °C. On human CRF1 receptor, the negative logarithm of the IC50 (pIC50) is above 6.00.

For `CC/C(=N/OC)c1ccc(Cl)c2nc3n(c12)CCCN3c1ccc(Cl)cc1Cl` [Example 122, (1Z)-1-[9-Chloro-1-(2,4-dichlorophenyl)-1,2,3,4-tetrahydropyrimido[1,2-a]benzimidazol-6-yl]propan-1-one O-methyloxime], the melting point lay within 144 to 145 °C. In addition, the pIC50 at human CRF1 receptor was above 6.00.

Consider `CCO/N=C(/CC)c1ccc(Cl)c2nc3n(c12)CCCN3c1ccc(Cl)cc1Cl` [Example 124, (1Z)-1-[9-Chloro-1-(2,4-dichlorophenyl)-1,2,3,4-tetrahydropyrimido[1,2-a]benzimidazol-6-yl]propan-1-one O-ethyloxime], for which the melting point was 140 to 141 °C. Further, at human CRF1 receptor, the negative logarithm of the IC50 (pIC50) was above 6.00.

With `CCC(O)(CC)c1ccc(Cl)c2nc3n(c12)CCCN3c1ccc(Cl)cc1C(F)(F)F` [Example 128, 3-{9-Chloro-1-[4-chloro-2-(trifluoromethyl)phenyl]-1,2,3,4-tetrahydropyrimido[1,2-a]benzimidazol-6-yl}pentan-3-ol], the melting point is 178 to 180 °C. In addition, the pIC50 at human CRF1 receptor is above 6.00.

Take `CCCC(O)(CCC)c1ccc(Cl)c2nc3n(c12)CCCN3c1ccc(Cl)cc1C(F)(F)F` [Example 129, 4-{9-Chloro-1-[4-chloro-2-(trifluoromethyl)phenyl]-1,2,3,4-tetrahydropyrimido[1,2-a]benzimidazol-6-yl}heptan-4-ol]: the melting point lay in the range of 200 to 202 °C. Also, on human CRF1 receptor, the pIC50 was above 6.00.

Consider `CCC(CC)(OC)c1ccc(Cl)c2nc3n(c12)CCCN3c1ccc(Cl)cc1C(F)(F)F` [Example 130, 9-Chloro-1-[4-chloro-2-(trifluoromethyl)phenyl]-6-(1-ethyl-1-methoxypropyl)-1,2,3,4-tetrahydropyrimido[1,2-a]benzimidazole], for which the melting point was 172 to 173 °C. Moreover, the negative-log IC50 (pIC50) on human CRF1 receptor is above 6.00.

Compound `CCC(O)c1ccc(Cl)c2nc3n(c12)CCCN3c1ccc(Cl)cc1C(F)(F)F` (stereo not shown) [Example 131, 1-{9-Chloro-1-[4-chloro-2-(trifluoromethyl)phenyl]-1,2,3,4-tetrahydropyrimido[1,2-a]benzimidazol-6-yl}propan-1-ol] registered a melting point of 220 to 222 °C. Also, at human CRF1 receptor, the pIC50 was above 6.00.

Compound `OC(c1ccc(Cl)c2nc3n(c12)CCCN3c1ccc(Cl)cc1C(F)(F)F)C1CC1` (stereo not shown) [Example 132, {9-Chloro-1-[4-chloro-2-(trifluoromethyl)phenyl]-1,2,3,4-tetrahydropyrimido[1,2-a]benzimidazol-6-yl}(cyclopropyl)methanol] yielded a melting point of 224 to 225 °C. In addition, the pIC50 on human CRF1 receptor was above 6.00.

With `CCC(OC)c1ccc(Cl)c2nc3n(c12)CCCN3c1ccc(Cl)cc1C(F)(F)F` (stereo not shown) [Example 133, 9-Chloro-1-[4-chloro-2-(trifluoromethyl)phenyl]-6-(1-methoxypropyl)-1,2,3,4-tetrahydropyrimido[1,2-a]benzimidazole], the melting point was in the range of 202 to 203 °C. Also, on human CRF1 receptor, the negative-log IC50 (pIC50) was above 6.00.

`COC(c1ccc(Cl)c2nc3n(c12)CCCN3c1ccc(Cl)cc1C(F)(F)F)C1CC1` (stereo not shown) [Example 134, 9-Chloro-1-[4-chloro-2-(trifluoromethyl)phenyl]-6-[cyclopropyl(methoxy)methyl]-1,2,3,4-tetrahydropyrimido[1,2-a]benzimidazole] gave a melting point of 208 to 209 °C. Also, on human CRF1 receptor, the negative logarithm of the IC50 (pIC50) was above 6.00.

The compound `Cc1cc(Cl)cc(Cl)c1N1CCCn2c1nc1c(Cl)ccc(C(O)(C3CC3)C3CC3)c12` [Example 138, [9-Chloro-1-(2,4-dichloro-6-methylphenyl)-1,2,3,4-tetrahydropyrimido[1,2-a]benzimidazol-6-yl](dicyclopropyl)methanol] registered a melting point of 210 to 212 °C. Further, at human CRF1 receptor, the pIC50 was above 6.00.

In turn, `CCCC(O)(CCC)c1ccc(Cl)c2nc3n(c12)CCCN3c1c(C)cc(Cl)cc1Cl` [Example 139, 4-[9-Chloro-1-(2,4-dichloro-6-methylphenyl)-1,2,3,4-tetrahydropyrimido[1,2-a]benzimidazol-6-yl]heptan-4-ol] displayed a melting point of 176 to 178 °C. In addition, on human CRF1 receptor, the negative-log IC50 (pIC50) was above 6.00.

Take `CCCC(OC)c1ccc(Cl)c2nc3n(c12)CCCN3c1c(C)cc(Cl)cc1Cl` (stereo not shown) [Example 141, 9-Chloro-1-(2,4-dichloro-6-methylphenyl)-6-(1-methoxybutyl)-1,2,3,4-tetrahydropyrimido[1,2-a]benzimidazole]: the melting point lay in the range of 151 to 152 °C. The negative logarithm of the IC50 (pIC50) at human CRF1 receptor is above 6.00.

`CCC(CO)c1ccc(Cl)c2nc3n(c12)CCCN3c1ccc(Cl)cc1Cl` (stereo not shown) [Example 147, 2-[9-Chloro-1-(2,4-dichlorophenyl)-1,2,3,4-tetrahydropyrimido[1,2-a]benzimidazol-6-yl]butan-1-ol] returned a melting point of 162 to 164 °C. For the same compound, at human CRF1 receptor, the negative logarithm of the IC50 (pIC50) is above 6.00.
